Data on two compounds can be found in article PMC8372549 (Toxicology and applied pharmacology, 2021).

What all share (format): biochemical
Assay [1] addresses T1, cytochrome P450 1A1 (Homo sapiens, UniProt P04798).
T1 sequence (P04798 1-512): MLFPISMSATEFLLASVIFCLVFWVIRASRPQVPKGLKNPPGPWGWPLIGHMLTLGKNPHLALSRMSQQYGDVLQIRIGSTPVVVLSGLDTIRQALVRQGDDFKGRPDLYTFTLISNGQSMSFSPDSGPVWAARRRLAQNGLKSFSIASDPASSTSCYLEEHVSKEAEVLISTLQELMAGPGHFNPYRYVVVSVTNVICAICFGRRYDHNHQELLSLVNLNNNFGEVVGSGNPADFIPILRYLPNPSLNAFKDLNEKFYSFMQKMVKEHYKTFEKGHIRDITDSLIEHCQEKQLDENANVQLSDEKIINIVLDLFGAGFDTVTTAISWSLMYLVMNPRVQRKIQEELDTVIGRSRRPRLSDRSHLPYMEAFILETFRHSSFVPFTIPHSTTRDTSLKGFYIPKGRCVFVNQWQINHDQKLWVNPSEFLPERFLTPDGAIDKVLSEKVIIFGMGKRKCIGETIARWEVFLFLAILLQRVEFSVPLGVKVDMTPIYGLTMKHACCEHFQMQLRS
In words: fluorometric O-deethylation by recombinant CYP1A1 bactosomes. To be noted: cited from earlier work.

Another assay addresses T2, CYP1B1 (Homo sapiens, UniProt Q16678).
T2 sequence (Q16678 1-543): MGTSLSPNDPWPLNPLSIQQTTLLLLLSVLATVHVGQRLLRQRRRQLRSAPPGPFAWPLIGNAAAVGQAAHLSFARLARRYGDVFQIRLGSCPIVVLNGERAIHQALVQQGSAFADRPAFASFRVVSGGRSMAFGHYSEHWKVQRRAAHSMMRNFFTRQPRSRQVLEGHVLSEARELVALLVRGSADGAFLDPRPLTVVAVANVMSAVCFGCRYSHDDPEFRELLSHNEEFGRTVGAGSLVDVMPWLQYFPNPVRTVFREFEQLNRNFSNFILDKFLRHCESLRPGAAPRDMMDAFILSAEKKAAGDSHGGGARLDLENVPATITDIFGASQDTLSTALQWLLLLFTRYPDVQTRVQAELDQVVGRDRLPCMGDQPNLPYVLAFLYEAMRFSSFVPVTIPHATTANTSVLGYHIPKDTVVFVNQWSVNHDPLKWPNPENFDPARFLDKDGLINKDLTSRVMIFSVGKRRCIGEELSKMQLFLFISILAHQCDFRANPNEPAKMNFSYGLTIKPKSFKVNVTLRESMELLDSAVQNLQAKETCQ
In words: fluorometric 7-ethoxyresorufin O-deethylation with recombinant CYP1B1 bactosomes.

Assay [2] addresses T1, cytochrome P450 1A1. In words: fluorometric CEC O-deethylation with recombinant CYP1A1 bactosomes.

In the case of `CCOc1ccc2cc(C#N)c(=O)oc2c1` [CEC, 3-cyano-7-ethoxycoumarin], on cytochrome P450 1A1 [1], the Km (usually the substrate concentration at which the rate is half of its maximum) was 0.5 µM.

As for `c1ccc(CSSSCc2ccccc2)cc1` [DTS, dibenzyl trisulfide], on CYP1B1, the IC50 (usually the concentration that gives 50% inhibition) worked out at 1.7 ± 0.3 µM. Further, the Ki (as a rule, a dissociation constant, usually derived from enzyme kinetics or from competition with a known ligand) on cytochrome P450 1A1 [2] was determined as 4.55 ± 0.37 µM.
